Measurements reported in patent US20140057915A1, “KINASE INHIBITORS” (TOPIVERT PHARMA LIMITED, priority 2012, published 2014).

Experiments:
GSK3α = GSK3α (Homo sapiens, UniProt P49840); assay: GSK 3α enzyme inhibition (FRET), Method 1; assay type: biochemical; conditions: Table 4a1
Method in brief: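 GSK3α was preincubated with test compound for 2 hr at RT, then a FRET peptide substrate and ATP were added for 1 hr. Protease development for 1 hr cleaved only non-phosphorylated peptide, and phosphorylation was read as the coumarin/fluorescein emission ratio. Concentrations given are those of the added solutions: enzyme 500 ng/mL, peptide 8 μM, ATP 40 μM.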

[1] = tested on: ICAM-1 expression, BEAS2B cells; assay: Poly I:C-induced ICAM-1 expression in BEAS2B cells; assay type: cell-based; conditions: Homo sapiens, BEAS-2B; read-out: Poly IC induced ICAM1 in BEAS2B, IC50
Method in brief: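 BEAS2B human bronchial epithelial cells pre-incubated 2 h with compound, then transfected with poly I:C (1 μg/mL) plus Oligofectamine. After 18 h, cell-surface ICAM-1 read by cell-based ELISA (A450–655), normalised to Crystal Violet cell number (A595); inhibition calculated against vehicle control at each concentration.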

Syk = Syk (Homo sapiens, UniProt P43405); assay: Syk enzyme inhibition (FRET); assay type: biochemical; conditions: Table 4a1
Method in brief: (§1)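 Kinase activity is measured on a dual-labelled synthetic peptide by FRET. ATP is supplied as an 800 μM solution for c-Src and a 60 μM solution for Syk. Compound is tested at four added concentrations, 4 to 0.004 μg/mL.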

[2] = tested on: TNFα release, d-U937 cells; assay: LPS-induced TNFα release in d-U937 cells; assay type: cell-based; conditions: Homo sapiens, dU937; relative to 10 μg/mL BIRB796; Table 4c1; read-out: LPS Induced Release of Cytokine in d-U937 Cells, TNFα REC50
Method in brief: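 U937 cells differentiated with PMA (100 ng/mL, 48–72 hr), pre-treated with compound for 2 hr, then stimulated with E. coli LPS (0.1 μg/mL) for 4 hr. Supernatant cytokine measured by sandwich ELISA; inhibition versus vehicle control, REC50 from concentration-response curve.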

cSrc = cSrc (Homo sapiens, UniProt P12931); assay: c-Src enzyme inhibition (FRET); assay type: biochemical; conditions: Table 4a1
cSrc, sequence (P12931 whole entry): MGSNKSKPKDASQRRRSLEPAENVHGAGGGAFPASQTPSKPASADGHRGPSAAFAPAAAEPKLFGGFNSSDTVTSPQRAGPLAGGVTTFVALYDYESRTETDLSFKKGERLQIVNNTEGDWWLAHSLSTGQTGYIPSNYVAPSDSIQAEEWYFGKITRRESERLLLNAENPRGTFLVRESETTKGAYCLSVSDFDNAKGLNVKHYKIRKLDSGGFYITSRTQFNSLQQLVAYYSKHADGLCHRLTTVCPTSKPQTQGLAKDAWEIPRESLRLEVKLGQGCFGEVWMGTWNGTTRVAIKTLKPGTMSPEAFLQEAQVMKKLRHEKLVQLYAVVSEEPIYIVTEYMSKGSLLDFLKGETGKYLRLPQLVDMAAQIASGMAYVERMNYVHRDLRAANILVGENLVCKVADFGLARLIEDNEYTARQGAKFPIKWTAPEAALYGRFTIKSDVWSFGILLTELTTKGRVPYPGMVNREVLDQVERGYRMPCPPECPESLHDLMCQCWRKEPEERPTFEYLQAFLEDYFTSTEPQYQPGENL
Method in brief: as §1

[3] = tested on: IL-8 release, d-U937 cells; assay: LPS-induced IL-8 release in d-U937 cells; assay type: cell-based; conditions: Homo sapiens, dU937; Table 4c1; read-out: LPS Induced Release of Cytokine in d-U937 Cells, IL-8 IC50
Method in brief: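 IL-8 release after a 4 hr challenge with LPS (0.1 μg/mL, E. coli 0111:B4) following a 2 hr compound pretreatment. Cells were human U937 monocytes differentiated to macrophage-type with PMA 100 ng/mL for 48–72 hr. Relative 50% effective concentration derived from concentration–response data.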

d-U937 cells = assay: Cell viability: MTT assay; assay type: cell-based, human; conditions: 1 μg/mL
Method in brief: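 Differentiated U937 cells exposed to compound at 1 or 10 μg/mL, either 4 h in 5% FCS or 24 h in 10% FCS RPMI1640. MTT then added for 1 h, formazan dissolved in DMSO and read at 550 nm. Viability loss given as % versus 0.5% DMSO vehicle; apparent gains appear negative.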

GSK3α, sequence (P49840 whole entry): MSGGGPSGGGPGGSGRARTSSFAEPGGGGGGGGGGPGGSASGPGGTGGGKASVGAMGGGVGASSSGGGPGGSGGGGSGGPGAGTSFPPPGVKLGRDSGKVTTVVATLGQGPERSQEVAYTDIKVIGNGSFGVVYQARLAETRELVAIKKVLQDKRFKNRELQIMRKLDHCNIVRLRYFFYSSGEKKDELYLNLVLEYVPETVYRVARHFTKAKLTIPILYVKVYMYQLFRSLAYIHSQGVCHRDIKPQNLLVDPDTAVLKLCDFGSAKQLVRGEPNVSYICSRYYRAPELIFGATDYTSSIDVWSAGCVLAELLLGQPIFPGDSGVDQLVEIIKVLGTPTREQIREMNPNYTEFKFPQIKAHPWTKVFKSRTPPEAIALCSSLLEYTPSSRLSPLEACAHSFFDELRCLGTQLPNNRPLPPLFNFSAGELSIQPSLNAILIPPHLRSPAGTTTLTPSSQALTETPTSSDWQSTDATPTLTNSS

Compound	IC50 (GSK3α) [nM]	IC50 (Syk) [nM]	EC50 [2] [nM]	IC50 (cSrc) [nM]	IC50 [3] [nM]	IC50 [1] [nM]	Cell viability at time point in d-U937 cells, 4 h (d-U937 cells)	Cell viability at time point in d-U937 cells, 24 h (d-U937 cells)
COc1cc(C(=O)NCCN(C)C)ccc1Nc1nccc(Oc2ccc(NC(=O)Nc3cc(C(C)C)nn3-c3ccc(C)cc3)c3ccccc23)n1 [Example 35, N-(2-(dimethylamino)ethyl)-4-((4-((4-(3-(3-isopropyl-1-(p-tolyl)-1H-pyrazol-5-yl)ureido)naphthalen-1-yl)oxy)pyrimidin-2-yl)amino)-3-methoxybenzamide]	> 14000	30	27.8	< 1	3.2	140	−ve (−ve and +ve indicate that the value is below and above respectively, the no significant effect threshold, defined as 30% inhibition at 1 μg/mL at the time point indicated)	−ve (−ve and +ve indicate that the value is below and above respectively, the no significant effect threshold, defined as 30% inhibition at 1 μg/mL at the time point indicated)
COc1cc(C(=O)NCCN2CCOCC2)ccc1Nc1nccc(Oc2ccc(NC(=O)Nc3cc(C(C)(C)C)nn3-c3ccc(C)cc3)c3ccccc23)n1 [Example 37, 4-((4-((4-(3-(3-(tert-butyl)-1-(p-tolyl)-1H-pyrazol-5-yl)ureido)naphthalen-1-yl)oxy)pyrimidin-2-yl)amino)-3-methoxy-N-(2-morpholinoethyl)benzamide]	> 13000	149	3.7	27	24.1	19.6	−ve (−ve and +ve indicate that the value is below and above respectively, the no significant effect threshold, defined as 30% inhibition at 1 μg/mL at the time point indicated)	−ve (−ve and +ve indicate that the value is below and above respectively, the no significant effect threshold, defined as 30% inhibition at 1 μg/mL at the time point indicated)
COc1ccc(-n2nc(C(C)C)cc2NC(=O)Nc2ccc(Oc3ccnc(Nc4ccc(C(=O)NCCN5CCOCC5)cc4OC)n3)c3ccccc23)cc1 [Example 38, 4-((4-((4-(3-(3-isopropyl-1-(4-methoxyphenyl)-1H-pyrazol-5-yl)ureido)naphthalen-1-yl)oxy)pyrimidin-2-yl)amino)-3-methoxy-N-(2-morpholinoethyl)benzamide]	> 13000	54	20.2	9	60.6	35.7	−ve (−ve and +ve indicate that the value is below and above respectively, the no significant effect threshold, defined as 30% inhibition at 1 μg/mL at the time point indicated)	−ve (−ve and +ve indicate that the value is below and above respectively, the no significant effect threshold, defined as 30% inhibition at 1 μg/mL at the time point indicated)
COc1cc(C(=O)NCCO)ccc1Nc1nccc(Oc2ccc(NC(=O)Nc3cc(C(C)C)nn3-c3ccc(C)cc3)c3ccccc23)n1 [Example 39, N-(2-hydroxyethyl)-4-((4-((4-(3-(3-isopropyl-1-(p-tolyl)-1H-pyrazol-5-yl)ureido)naphthalen-1-yl)oxy)pyrimidin-2-yl)amino)-3-methoxybenzamide]	> 14600	130	3.6	8	15.7	146	−ve (−ve and +ve indicate that the value is below and above respectively, the no significant effect threshold, defined as 30% inhibition at 1 μg/mL at the time point indicated)	−ve (−ve and +ve indicate that the value is below and above respectively, the no significant effect threshold, defined as 30% inhibition at 1 μg/mL at the time point indicated)
COc1cc(Nc2nccc(Oc3ccc(NC(=O)Nc4cc(C(F)(F)F)nn4-c4ccc(C)cc4)c4ccccc34)n2)cc(C(=O)NCCN2CCOCC2)c1 [Example 48, 3-methoxy-N-(2-morpholinoethyl)-5-((4-((4-(3-(1-(p-tolyl)-3-(trifluoromethyl)-1H-pyrazol-5-yl)ureido)naphthalen-1-yl)oxy)pyrimidin-2-yl)amino)benzamide]	> 12800	78	3.5	5	20.6	32.3	−ve (−ve and +ve indicate that the value is below and above respectively, the no significant effect threshold, defined as 30% inhibition at 1 μg/mL at the time point indicated)	−ve (−ve and +ve indicate that the value is below and above respectively, the no significant effect threshold, defined as 30% inhibition at 1 μg/mL at the time point indicated)

Now those with a lower IC50 (GSK3α), led by results:

IC50 (GSK3α) [nM]	IC50 (Syk) [nM]	EC50 [2] [nM]	IC50 (cSrc) [nM]	IC50 [3] [nM]	Compound	IC50 [1] [nM]	Cell viability at time point in d-U937 cells, 4 h (d-U937 cells)	Cell viability at time point in d-U937 cells, 24 h (d-U937 cells)
1200	15	0.4	10	0.4	COc1ccc(-n2nc(C(C)(C)C)cc2NC(=O)Nc2ccc(Oc3ccnc(Nc4cc(OC)cc(C(N)=O)c4)n3)c3ccccc23)cc1 [Example 41, 3-((4-((4-(3-(3-(tert-butyl)-1-(4-methoxyphenyl)-1H-pyrazol-5-yl)ureido)naphthalen-1-yl)oxy)pyrimidin-2-yl)amino)-5-methoxybenzamide]	2	−ve (−ve and +ve indicate that the value is below and above respectively, the no significant effect threshold, defined as 30% inhibition at 1 μg/mL at the time point indicated)	−ve (−ve and +ve indicate that the value is below and above respectively, the no significant effect threshold, defined as 30% inhibition at 1 μg/mL at the time point indicated)
197	7	0.2	2	0.6	COc1cc(Nc2nccc(Oc3ccc(NC(=O)Nc4cc(C(C)(C)C)nn4-c4ccc(C)cc4)c4ccccc34)n2)cc(C(=O)NCCN(C)C)c1 [Example 43, 3-((4-((4-(3-(3-(tert-butyl)-1-(p-tolyl)-1H-pyrazol-5-yl)ureido)naphthalen-1-yl)oxy)pyrimidin-2-yl)amino)-N-(2-(dimethylamino)ethyl)-5-methoxybenzamide]	0.4	−ve (−ve and +ve indicate that the value is below and above respectively, the no significant effect threshold, defined as 30% inhibition at 1 μg/mL at the time point indicated)	−ve (−ve and +ve indicate that the value is below and above respectively, the no significant effect threshold, defined as 30% inhibition at 1 μg/mL at the time point indicated)
2850	12	0.8	5	1.4	COc1ccc(-n2nc(C(C)C)cc2NC(=O)Nc2ccc(Oc3ccnc(Nc4cc(C(=O)NCCN5CCOCC5)cc(C(F)(F)F)c4)n3)c3ccccc23)cc1 [Example 47, 3-((4-((4-(3-(3-isopropyl-1-(4-methoxyphenyl)-1H-pyrazol-5-yl)ureido)naphthalen-1-yl)oxy)pyrimidin-2-yl)amino)-N-(2-morpholinoethyl)-5-(trifluoromethyl)benzamide]	3.6	−ve (−ve and +ve indicate that the value is below and above respectively, the no significant effect threshold, defined as 30% inhibition at 1 μg/mL at the time point indicated)	−ve (−ve and +ve indicate that the value is below and above respectively, the no significant effect threshold, defined as 30% inhibition at 1 μg/mL at the time point indicated)
